Values after ≈ are worked out from the molar mass of the structure shown. Values joined by “and” are separate entries in the source; they are usually repeats but may differ in a detail not shown here. Equal entries are not always repeated.
Columns and labels:
Candida albicans [1] = assay: Antifungal activity against Candida albicans assessed as inhibition of fungal growth by MTT method; assay type: functional
Bacillus subtilis = assay: Antibacterial activity against Bacillus subtilis assessed as inhibition of bacterial growth; assay type: functional
[2] = test system: Trichophyton mentagrophytes; assay: Antifungal activity against Trichophyton mentagrophytes assessed as inhibition of microbial growth; assay type: functional
Candida albicans [3] = assay: Antifungal activity against Candida albicans assessed as inhibition of fungal growth by MTT assay; assay type: functional
Phytophthora infestans = assay: Antifungal activity against Phytophthora infestans assessed as inhibition of microbial growth by microtiter plate based analysis; assay type: functional, organism-based
Cladosporium cucumerinum = assay: Antifungal activity against Cladosporium cucumerinum assessed as inhibition of microbial growth by bioautographic TLC method; assay type: functional
[4] = Toxicity in brine shrimp assessed as lethality; settings: artemia salina
Pyricularia oryzae [5] = assay: Antifungal activity against Pyricularia oryzae assessed as inhibition of microbial growth; assay type: functional, organism-based
[6] = test system: Trypanosoma brucei brucei; assay: […] activity against Trypanosoma brucei brucei GUTat 3.1 assessed as inhibition of parasite growth measured after 72 hrs by alamar blue assay; assay type: functional, organism-based
Zymoseptoria tritici = assay: Antifungal activity against Zymoseptoria tritici assessed as inhibition of microbial growth by microtiter plate based analysis; assay type: functional, organism-based
Pyricularia oryzae [7] = assay: Antifungal activity against Pyricularia oryzae assessed as inhibition of microbial growth by microtiter plate based analysis; assay type: functional, organism-based
[8] = target: Procathepsin L (Homo sapiens) (UniProt P07711); assay: Inhibition of Cathepsin L (unknown origin) at 0.00001 M relative to control; settings: dose 10 µM
Sequence of Procathepsin L (Homo sapiens) (P07711 114-333 limits assumed): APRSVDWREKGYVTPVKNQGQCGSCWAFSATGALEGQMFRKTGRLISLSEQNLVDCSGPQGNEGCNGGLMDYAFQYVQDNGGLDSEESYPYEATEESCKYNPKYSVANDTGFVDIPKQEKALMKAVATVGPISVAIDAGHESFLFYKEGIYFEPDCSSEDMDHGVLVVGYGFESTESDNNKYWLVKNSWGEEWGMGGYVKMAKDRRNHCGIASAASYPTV

[9] = target: Cathepsin B (Homo sapiens) (UniProt P07858); assay: Inhibition of Cathepsin B (unknown origin) at 0.00001 M relative to control; settings: dose 10 µM
P388 = assay: Antiproliferative activity against mouse P388 cells assessed as cell growth inhibition; assay type: functional, cell-based
[10] = test system: Panel NCI-60 (60 carcinoma cell lines); assay: Antiproliferative activity against human Panel NCI-60 (60 carcinoma cell lines) assessed as cell growth inhibition; assay type: functional
Botrytis cinerea = assay: Antifungal activity against Botrytis cinerea assessed as inhibition of microbial growth by microtiter plate based analysis; assay type: functional, organism-based
HT-29 = assay: Antiproliferative activity against human HT-29 cells assessed as cell growth inhibition; assay type: functional, cell-based; settings: read-out: ED50 (the source's name)
RPMI-7951 = assay: Antiproliferative activity against human RPMI-7951 cells assessed as cell growth inhibition; assay type: functional; settings: read-out: ED50 (the source's name)
U-251 = assay: Antiproliferative activity against human U-251MG cells assessed as cell growth inhibition; assay type: functional; settings: read-out: ED50 (the source's name)
[11] = GUTat 3.1, time 72 hrs, read-out: ED50 (the source's name)

With `CO[C@@H]1CC[C@]2(C)C3CCC4C(=CCC5C(C)(C)[C@H](O)CC[C@]45C)C[C@]3(C)CC[C@H]2C1(C)C` (some centres not stated) the MIC (Candida albicans [1]) was 2 µg/mL (≈ 4.38 µM).
`Oc1cc2ccc1Oc1cccc(c1)CCc1ccc(O)c(c1)Oc1ccc(cc1)CC2` showed an MIC (Bacillus subtilis) of 1.5 µg/mL (≈ 3.53 µM), an MIC [2] of 1 µg/mL and an MID (Candida albicans [3]) of 0.25 µg/mL.
Work on `C=C1CC[C@]2(C)[C@@H](O)[C@H]1[C@]1(C)CCC[C@@]12C` yielded an IC50 (Phytophthora infestans) of 0.1 µg/mL.
Work on `C=C1CC[C@H]2C(=C)CC[C@@H]3[C@H](OC(=O)[C@@H]3C)[C@@H]12` yielded an MIC (Cladosporium cucumerinum) of 3 µg/mL.
Compound `CC(=O)N1CCN(c2ccc(OCC3COC(Cn4ccnc4)(c4ccc(Cl)cc4Cl)O3)cc2)CC1` (configuration not stated) [KETOCONAZOLE] has an LC50 [4] of 14.9 ppm.
`Cc1ccc2c(c1O)[C@@H](C(C)C)CC[C@H]2C` showed an IC50 (Pyricularia oryzae [5]) of 1.7 µg/mL.
Work on `CC1=CCC[C@]2(C)CC[C@@H](C(C)(C)O)C[C@@H]12` yielded an EC50 ([6]; GUTat 3.1, 72 h, read-out: EC50) of 0.45 µM.
`CC1=CC[C@H]2C(C)(C)CCC[C@]2(C)[C@H]1C=O` showed an IC50 (Phytophthora infestans) of less than 0.03 µg/mL and an IC50 (Zymoseptoria tritici) of 17.6 µg/mL.
`Oc1ccc(CCc2c(Cl)cc(Cl)c(O)c2Cl)cc1Cl` showed an LC50 [4] of 0.42 ppm.
Work on `Oc1ccc2cc1Oc1ccc(cc1)CCc1ccc(c(O)c1O)Oc1cccc(c1)CC2` yielded an MIC [2] of 0.5 µg/mL and an MID (Candida albicans [3]) of 0.2 µg/mL.
Compound `Oc1ccc2c(c1)CCc1ccc(O)c(c1)-c1cc(ccc1O)CCc1ccc-2c(O)c1` [ISOPLAGIOCHIN D] has an IC50 (Pyricularia oryzae [7]) of 4 µg/mL and an IC50 (Zymoseptoria tritici) of 23.5 µg/mL.
For `Oc1ccc2cc1Oc1ccc(cc1)CCc1cccc(c1)Oc1c(O)cccc1CC2`, the inhibition [8] was 95% and the inhibition [9] was 93%.
In the case of `C=C1C(=O)C2=C[C@H]1CCC(=O)[C@]1(C)CCCC(C)(C)[C@H]1C[C@H]2O`, the GI50 (P388) is reported as 0.1 µg/mL and 300 nM, the IC50 (P388) is reported as 0.06 µg/mL (≈ 0.19 µM) and the GI50 [10] is reported as 1.2 µM.
Work on `COC(=O)c1c(C)cc(OC(=O)c2c(C)cc(O)c(C=O)c2O)c(C)c1O` [ATRANORIN] yielded an MIC (Candida albicans [1]) of 2 µg/mL (≈ 5.34 µM).
With `Oc1ccc2c(c1)CCc1ccc(O)c(c1)-c1cc(cc(Cl)c1O)/C=C(/Cl)c1ccc-2c(O)c1` the IC50 (Pyricularia oryzae [7]) was 3.9 µg/mL, the IC50 (Zymoseptoria tritici) was 15.9 µg/mL and the IC50 (Botrytis cinerea) was 7.6 µg/mL.
`COC(=O)c1c(C)cc(O)c(C)c1O` [ATRARIC ACID] showed an MIC (Candida albicans [1]) of 0.6 µg/mL (≈ 3.06 µM).
In the case of `C=C1C(=O)[C@]23O[C@@H]2[C@H]1CCC(=O)[C@]1(C)CCCC(C)(C)[C@H]1C[C@H]3O`, the GI50 (P388) is reported as 0.27 µg/mL and 800 nM, the IC50 (P388) is reported as 0.27 µg/mL (≈ 0.812 µM) and the GI50 [10] is reported as 2.5 µM.
In the case of `COc1ccc(CCc2c(Cl)ccc(O)c2Cl)cc1Cl`, the LC50 [4] is reported as 0.42 ppm.
In the case of `C=C1C(=O)C2=C[C@H]1C[C@H](O)C(=O)[C@]1(C)CCCC(C)(C)[C@H]1C[C@H]2O`, the GI50 [10] is reported as 1.5 µM.
`Oc1ccc2c(c1)CCc1ccc(O)c(c1)-c1cc(cc(Cl)c1O)CCc1ccc-2c(O)c1` gave an IC50 (Pyricularia oryzae [7]) of 2.6 µg/mL, an IC50 (Zymoseptoria tritici) of 4.5 µg/mL and an IC50 (Botrytis cinerea) of 18.9 µg/mL.
For `C=C1CC[C@@H]2[C@H]1[C@H]1OC(=O)C(=C)[C@@H]1CC[C@@]2(C)OC(C)=O`, the MIC (Cladosporium cucumerinum) was 10 µg/mL.
For `COc1cc(OC)c2c3c1C(=O)C[C@@H]1c4ccccc4O[C@@H](c4cccc(O)c4-2)[C@H]31`, the EC50 (HT-29) was 1 µg/mL (≈ 2.5 µM), the EC50 (RPMI-7951) was 1 µg/mL (≈ 2.5 µM) and the EC50 (U-251) was 2 µg/mL (≈ 4.99 µM).
With `Cc1ccc(C(=O)Nc2ccc(S(=O)(=O)O)c3cc(S(=O)(=O)O)cc(S(=O)(=O)O)c23)cc1NC(=O)c1cccc(NC(=O)Nc2cccc(C(=O)Nc3cc(C(=O)Nc4ccc(S(=O)(=O)O)c5cc(S(=O)(=O)O)cc(S(=O)(=O)O)c45)ccc3C)c2)c1` [SURAMIN] the EC50 [6, 11] was 1.5 µg/mL.
With `NCCCC(N)(C(=O)O)C(F)F` (configuration not stated) [EFLORNITHINE] the EC50 [6, 11] was 2.27 µg/mL.
Compound `C=C1C(=O)O[C@@H]2[C@H]3C(C)=C[C@H]4OC(=O)C(=CC[C@@H]12)[C@@H]34` has an inhibition [8] of 13.4% and an inhibition [9] of 24.7%.
